Each molecule was assayed against T1, ERR1 (also known as ERR-α or ERR-1) (Homo sapiens, UniProt P11474) (assay: TR-FRET assay (disruption of co-activator peptide binding)). Conditions: 6His-tagged ERR1 LBD, GST-hSRC2 co-activator polypeptide; average of 3 independent experiments.
T1 sequence (P11474 193-421 limits assumed): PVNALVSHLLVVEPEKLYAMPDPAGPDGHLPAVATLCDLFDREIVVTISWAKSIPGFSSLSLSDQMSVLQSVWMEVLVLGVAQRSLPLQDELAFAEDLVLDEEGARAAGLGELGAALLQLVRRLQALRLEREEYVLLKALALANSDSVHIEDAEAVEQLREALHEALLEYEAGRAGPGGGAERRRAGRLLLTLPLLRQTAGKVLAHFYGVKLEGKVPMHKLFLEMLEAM
Assay type: biochemical
Procedure, shortened: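 His6-ERR1 LBD (6 nM) with GST-SRC-2 peptide (6 nM), anti-GST Eu cryptate (30 nM) and anti-His XL665 (7.5 nM) in Tris pH 8/KCl/DTT/BSA buffer, equilibrated 4-18 h at 25 °C. Ex 340, em 615/665 nm; hyperbolic dose-response fit, mean of 3 experiments.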
Molecule `C=C(C)c1ccc(Cn2ncc3cc(/C=C4\SC(N5CCN[C@@H](CO)C5)=NC4=O)ccc32)c(C(F)(F)F)c1` [Example 247, 2-[3-(R)-(Hydroxymethyl)piperazin-1-yl]-5-({1-[4-(1-methylethenyl)-2-(trifluoromethyl)benzyl]-1H-indazol-5-yl}methylidene)-1,3-thiazol-4(5H)-one] has an EC50 of 0.041 µM.
In the case of `COc1ccc(Cn2ncc3cc(/C=C4\SC(N5CCN[C@@H](CO)C5)=NC4=O)ccc32)c(C(F)(F)F)c1` [Example 248, 2-[3-(R)-(Hydroxymethyl)piperazin-1-yl]-5-({1-[4-methoxy-2-(trifluoromethyl)benzyl]-1H-indazol-5-yl}methylidene)-1,3-thiazol-4(5H)-one], the EC50 is reported as 0.014 µM.
For `O=C1N=C(N2CCO[C@@H](CO)C2)S/C1=C\c1ccc2c(cnn2Cc2ccc(O)cc2C(F)(F)F)c1` [Example 249, 2-[(2R)-2-(Hydroxymethyl)morpholin-4-yl]-5-({1-[4-hydroxy-2-(trifluoromethyl)benzyl]-1H-indazol-5-yl}methylidene)-1,3-thiazol-4(5H)-one], the EC50 was 0.004 µM.
For `O=C1N=C(N2CCN[C@@H](CO)C2)S/C1=C\c1ccc2c(cnn2Cc2ccc(O)cc2C(F)(F)F)c1` [Example 250, 2-[(3R)-3-(Hydroxymethyl)piperazin-1-yl]-5-({1-[4-hydroxy-2-(trifluoromethyl)benzyl]-1H-indazol-5-yl}methylidene)-1,3-thiazol-4(5H)-one], the EC50 was 0.19 µM.
Molecule `O=C1N=C(N2CCO[C@H](CO)C2)S/C1=C\c1ccc2c(cnn2Cc2ccc(O)cc2C(F)(F)F)c1` [Example 251, 2-[(2S)-2-(Hydroxymethyl)morpholin-4-yl]-5-({1-[4-hydroxy-2-(trifluoromethyl)benzyl]-1H-indazol-5-yl}methylidene)-1,3-thiazol-4(5H)-one] has an EC50 of 0.004 µM.
`CN(C)[C@@H]1CCN(C2=NC(=O)/C(=C/c3ccc4c(cnn4Cc4ccc(C(F)(F)F)cc4C(F)(F)F)c3)S2)C1` [Example 252, 5-({1-[2,4-Bis(trifluoromethyl)benzyl]-1H-indazol-5-yl}methylidene)-2-[(3R)-3-(dimethylamino)pyrrolidin-1-yl]-1,3-thiazol-4(5H)-one] gave an EC50 of 0.19 µM.
With `CN1CCN(C2=NC(=O)/C(=C/c3ccc4c(cnn4Cc4ccc(C(F)(F)F)cc4C(F)(F)F)c3)S2)[C@@H](CO)C1` [Example 253, 5-({1-[2,4-Bis(trifluoromethyl)benzyl]-1H-indazol-5-yl}methylidene)-2-[(2R)-2-(hydroxymethyl)-4-methylpiperazin-1-yl]-1,3-thiazol-4(5H)-one] the EC50 was 0.005 µM.
Work on `CN1CCN(C2=NC(=O)/C(=C/c3ccc4c(cnn4Cc4ccc(Cl)cc4C(F)(F)F)c3)S2)[C@@H](CO)C1` [Example 254, 5-({1-[4-Chloro-2-(trifluoromethyl)benzyl]-1H-indazol-5-yl}methylidene)-2-[(2R)-2-(hydroxymethyl)-4-methylpiperazin-1-yl]-1,3-thiazol-4(5H)-one] yielded an EC50 of 0.0065 µM.
`CC[C@H]1CNCCN1C1=NC(=O)/C(=C/c2ccc3c(cnn3Cc3ccc(Cl)cc3C(F)(F)F)c2)S1` [Example 255] was tested, and the EC50 was 0.028 µM.
For `CC[C@H]1CN(C)CCN1C1=NC(=O)/C(=C/c2ccc3c(cnn3Cc3ccc(Cl)cc3C(F)(F)F)c2)S1` [Example 256, 5-({1-[4-Chloro-2-(trifluoromethyl)benzyl]-1H-indazol-5-yl}methylidene)-2-((2S)-2-ethyl-4-methylpiperazin-1-yl)-1,3-thiazol-4(5H)-one], the EC50 was 0.049 µM.
Molecule `N[C@@H]1C[C@H](CO)N(C2=NC(=O)/C(=C/c3ccc4c(cnn4Cc4ccc(Cl)cc4C(F)(F)F)c3)S2)C1` [Example 257, 2-[(2R,4R)-4-Amino-2-(hydroxymethyl)pyrrolidin-1-yl]-5-({1-[4-chloro-2-(trifluoromethyl)benzyl]-1H-indazol-5-yl}methylidene)-1,3-thiazol-4(5H)-one] has an EC50 of 0.096 µM.
`N[C@@H]1C[C@H](CO)N(C2=NC(=O)/C(=C/c3ccc4c(cnn4Cc4ccc(C(F)(F)F)cc4C(F)(F)F)c3)S2)C1` [Example 258, 2-[(2R,4R)-4-Amino-2-(hydroxymethyl)pyrrolidin-1-yl]-5-({1-[2,4-bis(trifluoromethyl)benzyl]-1H-indazol-5-yl}methylidene)-1,3-thiazol-4(5H)-one] showed an EC50 of 0.03 µM.
`CC(=O)N[C@@H]1C[C@H](CO)N(C2=NC(=O)/C(=C/c3ccc4c(cnn4Cc4ccc(C(F)(F)F)cc4C(F)(F)F)c3)S2)C1` [Example 259, N-{1-[(3R,5R)-5-({1-[2,4-Bis(trifluoromethyl)benzyl]-1H-indazol-5-yl}methylidene)-4-oxo-4,5-dihydro-1,3-thiazol-2-yl]-5-(hydroxymethyl)pyrrolidin-3-yl}acetamide] was tested, and the EC50 was 0.03 µM.
`O=C1N=C(N2C[C@H](NC(=O)C3CC3)C[C@@H]2CO)S/C1=C\c1ccc2c(cnn2Cc2ccc(C(F)(F)F)cc2C(F)(F)F)c1` [Example 260, N-{(3R,5R)-1-[5-({1-[2,4-Bis(trifluoromethyl)benzyl]-1H-indazol-5-yl}methylidene)-4-oxo-4,5-dihydro-1,3-thiazol-2-yl]-5-(hydroxymethyl)pyrrolidin-3-yl}cyclopropanecarboxamide] showed an EC50 of 0.29 µM.
Work on `CC(=O)N[C@@H]1C[C@H](CO)N(C2=NC(=O)/C(=C/c3ccc4c(cnn4Cc4ccc(Cl)cc4C(F)(F)F)c3)S2)C1` [Example 261, N-{(3R,5R)-1-[5-({1-[4-Chloro-2-(trifluoromethyl)benzyl]-1H-indazol-5-yl}methylidene)-4-oxo-4,5-dihydro-1,3-thiazol-2-yl]-5-(hydroxymethyl)pyrrolidin-3-yl}acetamide] yielded an EC50 of 0.02 µM.
Molecule `CC(C)N[C@@H]1C[C@H](CO)N(C2=NC(=O)/C(=C/c3ccc4c(cnn4Cc4ccc(C(F)(F)F)cc4C(F)(F)F)c3)S2)C1` [Example 262] has an EC50 of 0.064 µM.
For `CC(C)N[C@@H]1C[C@H](CO)N(C2=NC(=O)/C(=C/c3ccc4c(cnn4Cc4ccc(Cl)cc4C(F)(F)F)c3)S2)C1` [Example 263], the EC50 was 0.042 µM.
`CC(N[C@H]1CCN(C2=NC(=O)/C(=C/c3ccc4c(cnn4Cc4ccc(C(F)(F)F)cc4C(F)(F)F)c3)S2)C1)C(N)=O` (stereo partly drawn) [Example 264, N-2-{(3S)-1-[5-({1-[2,4-Bis(trifluoromethyl)benzyl]-1H-indazol-5-yl}methylidene)-4-oxo-4,5-dihydro-1,3-thiazol-2-yl]pyrrolidin-3-yl}alaninamide] showed an EC50 of 0.047 µM.
Work on `CC(N[C@H]1CCN(C2=NC(=O)/C(=C/c3ccc4c(cnn4Cc4ccc(Cl)cc4C(F)(F)F)c3)S2)C1)C(N)=O` (stereo partly drawn) [Example 265, N-2-{(3S)-1-[5-({1-[4-Chloro-2-(trifluoromethyl)benzyl]-1H-indazol-5-yl}methylidene)-4-oxo-4,5-dihydro-1,3-thiazol-2-yl]pyrrolidin-3-yl}alaninamide] yielded an EC50 of 0.038 µM.
For `O=C1N=C(N2CCC[C@H](NCC(F)F)C2)S/C1=C\c1ccc2c(cnn2Cc2ccc(C(F)(F)F)cc2C(F)(F)F)c1` [Example 266, 5-({1-[2,4-Bis(trifluoromethyl)benzyl]-1H-indazol-5-yl}methylidene)-2-{(3S)-3-[(2,2-difluoroethyl)amino]piperidin-1-yl}-1,3-thiazol-4(5H)-one], the EC50 was 0.024 µM.
For `O=C1N=C(N2CCCC(NCCO)C2)S/C1=C\c1ccc2c(cnn2Cc2ccc(C(F)(F)F)cc2C(F)(F)F)c1` (stereo not drawn) [Example 267, 5-({1-[2,4-Bis(trifluoromethyl)benzyl]-1H-indazol-5-yl}methylidene)-2-{3-[(2-hydroxyethyl)amino]piperidin-1-yl}-1,3-thiazol-4(5H)-one], the EC50 was 0.043 µM.
Work on `O=C1N=C(N2CCC(O)(C(=O)O)CC2)S/C1=C\c1ccc2c(cnn2Cc2ccc(Cl)cc2C(F)(F)F)c1` [Example 268, 1-[5-({1-[4-Chloro-2-(trifluoromethyl)benzyl]-1H-indazol-5-yl}methylidene)-4-oxo-4,5-dihydro-1,3-thiazol-2-yl]-4-hydroxypiperidine-4-carboxylic acid] yielded an EC50 of 0.015 µM.
`O=C1N=C(N2CCC(O)(C(=O)O)CC2)S/C1=C\c1ccc2c(cnn2Cc2ccc(C(F)(F)F)cc2C(F)(F)F)c1` [Example 269, 1-[5-({1-[2,4-Bis(trifluoromethyl)benzyl]-1H-indazol-5-yl}methylidene)-4-oxo-4,5-dihydro-1,3-thiazol-2-yl]-4-hydroxypiperidine-4-carboxylic acid] was tested, and the EC50 was 0.015 µM.
Molecule `CNC1CN(C2=NC(=O)/C(=C/c3ccc4c(cnn4Cc4ccc(Cl)cc4C(F)(F)F)c3)S2)C1` [Example 270, 5-({1-[4-Chloro-2-(trifluoromethyl)benzyl]-1H-indazol-5-yl}methylidene)-2-[3-(methylamino)azetidin-1-yl]-1,3-thiazol-4(5H)-one] has an EC50 of 0.008 µM.
In the case of `CONC(=O)C1CN(C2=NC(=O)/C(=C/c3ccc4c(cnn4Cc4ccc(Cl)cc4C(F)(F)F)c3)S2)CCN1` (stereo not drawn) [Example 271, 4-[5-({1-[4-Chloro-2-(trifluoromethyl)benzyl]-1H-indazol-5-yl}methylidene)-4-oxo-4,5-dihydro-1,3-thiazol-2-yl]-N-methoxypiperazine-2-carboxamide], the EC50 is reported as 0.009 µM.
In the case of `CONC(=O)C1CN(C2=NC(=O)/C(=C/c3ccc4c(cnn4Cc4ccc(C(F)(F)F)cc4C(F)(F)F)c3)S2)CCN1` (stereo not drawn) [Example 272, 4-[5-({1-[2,4-Bis(trifluoromethyl)benzyl]-1H-indazol-5-yl}methylidene)-4-oxo-4,5-dihydro-1,3-thiazol-2-yl]-N-methoxypiperazine-2-carboxamide], the EC50 is reported as 0.035 µM.
`NC(=O)C1CN(C2=NC(=O)/C(=C/c3ccc4c(cnn4Cc4ccc(Cl)cc4C(F)(F)F)c3)S2)CCN1` (stereo not drawn) [Example 273, 4-[5-({1-[4-Chloro-2-(trifluoromethyl)benzyl]-1H-indazol-5-yl}methylidene)-4-oxo-4,5-dihydro-1,3-thiazol-2-yl]piperazine-2-carboxamide] showed an EC50 of 0.006 µM.

Reference: US8399681B2, “Substituted aminothiazolone indazoles as estrogen related receptor-alpha modulators” (Janssen Pharmaceutica NV, priority 2009, dated 2013)
